# Entries after “also recorded” stand apart in the source; their conditions may differ.
# Experiments:
# apoptotic cells [1] = settings: cited from earlier work
# [2] = system: membranes that are rich in PS; settings: cited from earlier work
# [3] = system: vesicle membranes containing anionic phospholipids (phosphatidylserine, phosphatidylglycerol, phosphatidic acid); experiment: Fluorescence response to vesicle membranes containing anionic phospholipids; type: binding; settings: more than a few percent of phosphatidylserine, phosphatidylglycerol or phosphatidic acid
# Description: (§1) Unilamellar vesicles were prepared by initial hydration of a dried lipid film followed by repeated extrusion through polycarbonate membranes having a pore size of 100 nm. Aliquots of vesicle suspension were added to a solution of PSS-380 (1 μM, 3 mL) in HEPES buffer (10 mM) at pH 7.2. The fluorescence emission intensity at 440 nm (ex 380 nm) was measured 15 seconds after the addition of each aliquot.
# [4] = system: POPC:POPA (50:50) vesicles; experiment: Vesicle fluorescence titration of PSS-380, POPC:POPA vesicles; type: binding; settings: 50:50, PSS-380 1 μM, HEPES 10 mM, pH 7.2, ex 380, em 440 nm
# Description: as §1
# erythrocytes = experiment: Erythrocyte studies, normal versus scrambled erythrocytes; type: cell-based, human; settings: PSS-380 1 μM, 5 mM TES, 150 mM NaCl, pH 7.4, 4×10^9 erythrocytes
# Description: Aliquots (10 μL) containing 4.0×10^9 of normal or “scrambled” erythrocytes were added to a solution of PSS-380 (1 μM, 3 mL) in 5 mM TES, 150 mM NaCl, pH 7.4. The erythrocytes were prepared in the following way. Fresh human blood was collected in ice-cold phosphate-buffered-saline (PBS) containing 10 U/mL of heparin. The samples were centrifuged and the supernatant and the top 10% of the erythrocytes were removed. The wash was repeated two more times. An equal volume of PBS was added to the remaining pellet. The desired number of cells was removed, centrifuged and the supernatant discarded. Four volumes of lysis buffer (0.1×PBS containing 0.1 mM EGTA, 1 mM MgCl2, and 1% BSA, plus 1 mM CaCl2 for “scrambled” erythrocytes only) were added to the pellet. The suspensions were vortexed and the lysed cells were placed on ice. After 2 minutes, the cells were resealed by adding 0.4 volumes (relative to the size of the original pellet) of 10×PBS. The tubes were gently inverted and warmed to 37° C. After 30 minutes, 100 volumes of PBS were added, then the cells were centrifuged into pellets, washed three times, and resuspended in TES buffer for use.
# [5] = in water; cited from earlier work
# Jurkat cells [6] = experiment: Single-well bulk fluorescence assay for apoptosis; type: cell-based; settings: apoptosis induced by camptothecin
# Description: The ability of PSS-380 to detect cell apoptosis was also examined in the present invention. This was approached in three ways. First, it was assessed whether PSS-380 could be used in a single-well, bulk fluorescence assay for apoptosis. […] Thus, cell apoptosis may be detected qualitatively using PSS-380 in a simple, single-well, bulk fluorecence assay.
# apoptotic cells [7] = experiment: Cell staining and fluorescence microscopy of apoptotic cells; type: cell-based
# Description: Jurkat E6-1 cells were grown in RPMI 1640 growth media supplemented with 10% fetal bovine serum. MCF-7 cells were grown in DMEM growth media with 10% fetal bovine serum. […] Suspended cells (Jurkat) were grown to a density of 1×10^6 cells/mL. Before staining with annexin V-FITC, the growth media was changed to a binding buffer containing 5 mM TES/145 mM NaCl, 2.5 mM CaCl2, at pH 7.4. The cells were incubated with annexin V-FITC (10 μL of Pharmingen stock solution per mL cell suspension), 7AAD (5 μL of 50 μg/mL stock solution per mL cell suspension), and PSS-380 (20 μL of 1 mM stock solution per mL cell suspension) for 15 minutes at 37° C. The incubation mixture was aspirated and changed to a buffer containing 5 mM TES, 145 mM NaCl, pH 7.4. At this point, the Jurkat cell suspensions were added to 16-well chamber-slides. Cells were observed directly on an Axiovert S100 TV microscope (Carl Zeiss) equipped with filter sets DAPI/Hoechst/[…]/Bodipy/Fluo3/DiO, Cy3 (Chroma). Pictures were taken using a black and white digital camera and colored afterwards using Photoshop 6.0 software package (Adobe). Fluorescence microscopy was also used to evaluate if PSS-380 could identify sub-populations of live, apoptotic, and dead cells. Cell apoptosis was induced by treatment with camptothecin, or the calcium ionophore A23187. The drug-treated cells and untreated control cells were subsequently stained with a mixture of annexin V-FITC (green), PSS-380 (blue) and 7AAD (red). FIGS. 5, 6 and 7 display typical microscopic images produced using this method. Live cells are not stained by any of the dyes; whereas, staining by 7AAD identifies dead cells with permeable membranes. Cells that are only stained by annexin V-FITC or PSS-380 are defined as apoptotic. The microscopic images show a slight statistical variation in cell staining, due in part to the fact that PSS-380 and annexin V-FITC are competing for the same cell surface binding sites. If the staining experiments are repeated using either annexin V or PSS-380 alone, the emission from positive cells is more homogeneous and with similar intensity.
# Jurkat cells [8] = experiment: Toxicity of PSS-380, flow cytometry with PI; type: cell-based; settings: 100 μM, one hour
# Description: Tests were performed to establish the toxicity of PSS-380.
# [9] = system: POPC:POPG (50:50) vesicles; experiment: Vesicle fluorescence titration of PSS-380, POPC:POPG vesicles; type: binding; settings: 50:50, PSS-380 1 μM, HEPES 10 mM, pH 7.2, ex 380, em 440 nm
# Description: as §1
# [10] = 31P NMR titration with DHPS and DHPC in water; type: binding
# Description: (§2) Although the fluorescence emission of PSS-380 increases in the presence of vesicles containing PS, it is unchanged if the PS is monodispersed. […] Titration of PSS-380 with increasing amounts of a DHPC:DHPS (1:1) mixture results in no change in fluorescence intensity. Further evidence that PSS-380 has a weak affinity for DHPS and DHPC in water was gained from ^31P NMR titration experiments. The ^31P signals for phospholipid head groups hardly move upon addition of PSS-380. This is in line with previous studies with PSS-380 showing that it has low affinity for neutral or mono-anionic molecules in water, Ojida, A., Mito-Oka, Y., Inoue, M. A. & Hamachi, I. (2002) J. Am. Chem. Soc., 124, 6256–6258, the entire contents and disclosure of which is hereby incorporated by reference.
# POPC:POPS vesicles = experiment: Vesicle fluorescence titration of PSS-380, POPC:POPS vesicles; type: binding; settings: HEPES 10 mM
# Description: as §1
# [11] = Fluorescence titration with monodispersed phospholipids; type: binding; settings: DHPC:DHPS (1:1) titration, micromolar concentrations
# Description: as §2
# 100% POPC vesicles = experiment: Vesicle fluorescence titration of PSS-380, zwitterionic POPC vesicles; type: binding
# Description: as §1
compound,measurement,setting,value
CCCCN(CCCC)c1ccc(/C=C/c2cc[n+](CCC[N+](CC)(CC)CC)cc2)cc1.[Br-].[Br-] [FM1-43],signal difference between normal cells and apoptotic cells,apoptotic cells [1],6–10 fold
CCCCN1C(=O)C(=C/C=C/C=C2\Oc3ccccc3N2CCCS(=O)(=O)[O-])C(=O)N(CCCC)C1=S.[Na+] [MC540],signal difference between normal cells and apoptotic cells,apoptotic cells [1],about five fold
annexin V: 35 Kd PS-binding protein,incubation time required for complete binding,[2],up to one hour
same,association constant for binding to membranes that are rich in PS,[2]; in the presence of sufficient calcium,around 10^8 M^−1
same,signal difference between normal cells and apoptotic cells,apoptotic cells [1],up to 100 fold
"anthracene zinc dipicolylamine [AZD, reference compound]",change in fluorescence intensity with vesicle membranes containing anionic phospholipids,[3],hardly changed
O=[N+]([O-])[O-].O=[N+]([O-])[O-].O=[N+]([O-])[O-].O=[N+]([O-])[O-].[Zn+2].[Zn+2].c1ccc(CN(Cc2ccccn2)Cc2c3ccccc3c(CN(Cc3ccccn3)Cc3ccccn3)c3ccccc23)nc1 [PSS-380],"change in fluorescence intensity, POPC:POPA vesicles",[4],six-fold increase
same,fluorescence induced by scrambled erythrocytes compared to equal number of normal erythrocytes,erythrocytes,much higher
same,change in fluorescence intensity with vesicle membranes containing anionic phospholipids,[3],increases up to ten-fold
same,association constant for phosphorylated compounds like phosphotyrosine,[5],around 10^7 M^−1
same,emission in presence of apoptotic Jurkat cells versus equal number of live cells,Jurkat cells [6],twice as intense (±5%)
same,effect of the presence of Ca^2+ on binding to apoptotic cells,apoptotic cells [7],not noticeably inhibited
same,speed of binding to apoptotic cells,apoptotic cells [7],almost instantaneous
same,staining after treatment with 10 mM EDTA,apoptotic cells [7]; 10 mM EDTA,fades rapidly
same,staining intensity compared with annexin V,apoptotic cells [7]; microscopy data,more intense than annexin V
same,"change in cell viability, judged by PI staining",Jurkat cells [8],no change in cell viability
same,"change in fluorescence intensity, POPC:POPG vesicles",[9],eleven-fold increase
same,movement of 31P signals for phospholipid head groups upon addition of sensor,[10],hardly move
same,"change in fluorescence intensity, POPC:POPS 50:50 vesicles","POPC:POPS vesicles; 50:50, PSS-380 1 μM, pH 7.2, ex 380, em 440 nm",ten-fold increase
same,"change in fluorescence emission, vesicles containing 5 mol % of POPS","POPC:POPS vesicles; POPC:POPS 95:5, PSS-380 1 μM, pH 7.2",four-fold rise
same,change in fluorescence intensity with monodispersed phospholipids,[11],not affected; also recorded: no change
same,affinity with membranes composed only of zwitterionic phospholipids,100% POPC vesicles,no apparent affinity
same,change in fluorescence after addition of zwitterionic POPC vesicles,"100% POPC vesicles; PSS-380 1 μM, HEPES 10 mM, pH 7.2, ex 380, em 440 nm",not affected; also recorded: No change
